Values quoted from earlier work, collected in US6423339B1, “Liquisolid systems and methods of preparing same” (priority 1996, dated 2002).

Legend:
[1] = diuretic

Structure (SMILES) | Solubility in alcohol (descriptive) | Solubility in chloroform (descriptive) | Volume of alcohol in which 1 gram of drug is soluble (per 1 gram of drug) | Volume of chloroform in which 1 gram of drug is soluble (per 1 gram of drug) | Solubility in water (descriptive) | also measured
Cc1ccc(C)c(OCCCC(C)(C)C(=O)O)c1 [Gemflbrozil] |  |  |  |  | practically water-insoluble (1 part solute into 10,000 or more parts of water) | 
NS(=O)(=O)c1cc2c(cc1Cl)NCNS2(=O)=O [Hydrochlorothiazide] |  |  |  |  |  | Potency relative to chlorothiazide [1]: 10 times
CN1C(CCl)Nc2cc(Cl)c(S(N)(=O)=O)cc2S1(=O)=O (centres unmarked) [Methyclothiazide] |  |  | 92.5 mL | more than 10,000 ml |  | Solubility in acetone (descriptive): freely soluble; pka: 9.4; Volume of ether in which 1 gram of drug is soluble (per 1 gram of drug): 2,700 ml; Volume of water in which 1 gram of drug is soluble (per 1 gram of drug): more than 10,000 ml

Further lines, with some results ahead:

Solubility in alcohol (descriptive) | Solubility in chloroform (descriptive) | Volume of alcohol in which 1 gram of drug is soluble (per 1 gram of drug) | Volume of chloroform in which 1 gram of drug is soluble (per 1 gram of drug) | Structure (SMILES) | Solubility in water (descriptive) | also measured
soluble | soluble |  |  | CCOC(=O)C(C)(C)Oc1ccc(Cl)cc1 [Clofibrate] | insoluble (1 part solute into 10,000 or more parts of water) | Solubility in other common organic solvents (descriptive): soluble; Stability (descriptive) (liquid drug): stable
 |  | 150 mL | 200 mL | C[C@]12C=CC(=O)C=C1CC[C@@H]1[C@@H]2C(=O)C[C@@]2(C)[C@H]1CC[C@]2(O)C(=O)CO [Prednisone] | very slightly soluble | 
soluble | freely soluble |  |  | CC(=O)S[C@@H]1CC2=CC(=O)CC[C@]2(C)[C@H]2CC[C@@]3(C)[C@@H](CC[C@@]34CCC(=O)O4)[C@H]12 [Spironolactone] | practically insoluble | Solubility in fixed oils (descriptive): slightly soluble
